Measurements published in patent US11591311B2, “3-oxo-6-heteroaryl-2-phenyl-2,3-dihydropyridazine-4-carboxamides” (priority 2017, dated 2023).

target: T1, AHR (Homo sapiens, UniProt P35869); assay: In vitro assay 1: AHR-luc transactivation assay, antagonism in human cell line (U87 glioblastoma cells prestimulated with kynurenic acid); type: cell-based
T1 construct: U87 glioblastoma cells (ATCC) endogenously expressing AHR; host or cells: U87 glioblastoma cells, stably transfected with DRE-firefly luciferase and renilla reporter constructs
T1 sequence (P35869 11-848): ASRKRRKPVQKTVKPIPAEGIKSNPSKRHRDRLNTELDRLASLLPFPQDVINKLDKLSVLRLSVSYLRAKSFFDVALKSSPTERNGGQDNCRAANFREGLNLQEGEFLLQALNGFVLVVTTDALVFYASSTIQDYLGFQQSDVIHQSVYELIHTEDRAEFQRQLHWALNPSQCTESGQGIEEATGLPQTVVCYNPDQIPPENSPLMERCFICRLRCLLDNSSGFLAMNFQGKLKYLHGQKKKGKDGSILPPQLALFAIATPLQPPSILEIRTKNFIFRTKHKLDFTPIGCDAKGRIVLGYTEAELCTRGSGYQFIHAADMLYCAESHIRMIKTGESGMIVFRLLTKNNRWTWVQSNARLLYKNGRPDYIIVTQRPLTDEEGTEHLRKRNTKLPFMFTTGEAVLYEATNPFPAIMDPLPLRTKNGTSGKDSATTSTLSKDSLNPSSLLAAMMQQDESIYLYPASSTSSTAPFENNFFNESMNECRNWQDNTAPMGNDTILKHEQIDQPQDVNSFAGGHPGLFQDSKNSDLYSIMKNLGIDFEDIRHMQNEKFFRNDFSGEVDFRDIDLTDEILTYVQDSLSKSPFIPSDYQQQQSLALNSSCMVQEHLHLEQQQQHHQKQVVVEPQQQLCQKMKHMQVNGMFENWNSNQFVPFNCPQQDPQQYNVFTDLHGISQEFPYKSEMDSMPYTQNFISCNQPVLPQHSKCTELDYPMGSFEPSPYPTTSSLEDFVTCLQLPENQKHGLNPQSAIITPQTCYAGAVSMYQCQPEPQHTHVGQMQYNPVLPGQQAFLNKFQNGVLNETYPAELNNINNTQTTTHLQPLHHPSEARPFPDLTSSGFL
Experimental: Transactivation Assay in Human Cell Line (In Vitro Assays 1 and 2)
Transactivation assays were carried out in U87 glioblastoma cells (ATCC) endogenously expressing AHR. In addition the cells were stably transfected with an AHR inducible firefly luciferase reporter gene construct that carried AHR-binding sites (DRE) in its promoter and a renilla reporter gene construct with constitutively active promoter. Kynurenic acid is an endogenous AHR activating ligand and was used to prestimulate test cells prior to testing the antagonistic properties of compounds.
In Vitro Assay 1: Antagonism in Human Cell Line
Cells in medium (tryptophan free RPMI, 1% FCS, 2 mM Glutamine) supplemented with 150 μM kynurenic acid were grown for 20 hours in absence (negative control) or presence of increasing concentrations of test compounds (typical dilutions: 72 pmol/L, 0.25 nmol/L, 0.89 nmol/L; 3.1 nmol/L, 11 nmol/L, 38 nmol/L, 130 nmol/L, 470 nmol/L, 1.6 μmol/L, 5.7 μmol/L and 20 μmol/L in duplicates). As positive inhibition control cells supplemented with 150 μM kynurenic acid were incubated in presence of 5 μM Staurosporin. Normalization was done by positive and negative controls.
Firefly luciferase and Renilla activity was determined by the DualGlo Luciferase Assay System (Promega, #2920). Renilla activity was used to assess toxic effects of compounds.

SMILES	IC50 [nM]
C[C@@H](CO)NC(=O)c1cc(-c2ccc(C(F)(F)F)nc2)nn(-c2ccc(F)c(F)c2)c1=O [Example 3, 2-(3,4-Difluorophenyl)-N-[(2S)-1-hydroxypropan-2-yl]-3-oxo-6-[6-(trifluoromethyl)pyridin-3-yl]-2,3-dihydropyridazine-4-carboxamide]	623
Cc1ccc(-c2cc(C(=O)N[C@@H](C)CO)c(=O)n(-c3cccc(F)c3)n2)nc1 [Example 12, 2-(3-Fluorophenyl)-N-[(2S)-1-hydroxypropan-2-yl]-6-(5-methylpyridin-2-yl)-3-oxo-2,3-dihydropyridazine-4-carboxamide]	1080
C[C@H](NC(=O)c1cc(-c2cnc(C(F)(F)F)nc2)nn(-c2cccc(F)c2)c1=O)C(C)(C)O [Example 14, 2-(3-Fluorophenyl)-N-[(2S)-3-hydroxy-3-methylbutan-2-yl]-3-oxo-6-[2-(trifluoromethyl)pyrimidin-5-yl]-2,3-dihydropyridazine-4-carboxamide]	217
O=C(NC[C@H](O)C(F)F)c1cc(-c2cnc(C(F)(F)F)nc2)nn(-c2cccc(F)c2)c1=O [Example 15, N-[(2S)-3,3-Difluoro-2-hydroxypropyl]-2-(3-fluorophenyl)-3-oxo-6-[2-(trifluoromethyl)pyrimidin-5-yl]-2,3-dihydropyridazine-4-carboxamide]	307
C[C@H](O)[C@H](C)NC(=O)c1cc(-c2cnc(C(F)(F)F)nc2)nn(-c2cccc(F)c2)c1=O [Example 16, 2-(3-Fluorophenyl)-N-[(2S,3S)-3-hydroxybutan-2-yl]-3-oxo-6-[2-(trifluoromethyl)pyrimidin-5-yl]-2,3-dihydropyridazine-4-carboxamide]	169
CC(C)(O)CNC(=O)c1cc(-c2cnc(C(F)(F)F)nc2)nn(-c2cccc(F)c2)c1=O [Example 17, 2-(3-Fluorophenyl)-N-(2-hydroxy-2-methylpropyl)-3-oxo-6-[2-(trifluoromethyl)pyrimidin-5-yl]-2,3-dihydropyridazine-4-carboxamide]	2030
COc1ccc(-c2cc(C(=O)N[C@H](C)C(C)(C)O)c(=O)n(-c3cccc(F)c3)n2)cn1 [Example 20, 2-(3-Fluorophenyl)-N-[(2R)-3-hydroxy-3-methylbutan-2-yl]-6-(6-methoxypyridin-3-yl)-3-oxo-2,3-dihydropyridazine-4-carboxamide]	509
Cc1ccc(-c2cc(C(=O)N[C@@H](C)CO)c(=O)n(-c3cccc(F)c3)n2)cn1 [Example 23, 2-(3-Fluorophenyl)-N-[(2S)-1-hydroxypropan-2-yl]-6-(6-methylpyridin-3-yl)-3-oxo-2,3-dihydropyridazine-4-carboxamide]	265
C[C@@H](CO)NC(=O)c1cc(-c2ccc(Cl)cn2)nn(-c2cccc(F)c2)c1=O [Example 24, 6-(5-Chloropyridin-2-yl)-2-(3-fluorophenyl)-N-[(2S)-1-hydroxypropan-2-yl]-3-oxo-2,3-dihydropyridazine-4-carboxamide]	352
C[C@@H](CO)NC(=O)c1cc(-c2ccc(C(F)(F)F)cn2)nn(-c2cccc(F)c2)c1=O [Example 25, 2-(3-Fluorophenyl)-N-[(2S)-1-hydroxypropan-2-yl]-3-oxo-6-[5-(trifluoromethyl)pyridin-2-yl]-2,3-dihydropyridazine-4-carboxamide]	84.8
O=C(N[C@@H]1CSC[C@@H]1O)c1cc(-c2ccc(C(F)(F)F)nc2)nn(-c2cccc(F)c2)c1=O [Example 26, 2-(3-Fluorophenyl)-N-[(3S,4R)-4-hydroxytetrahydrothiophen-3-yl]-3-oxo-6-[6-(trifluoromethyl)pyridin-3-yl]-2,3-dihydropyridazine-4-carboxamide]	5740
CC(C)(O)[C@@H](NC(=O)c1cc(-c2ccc(C(F)F)nc2)nn(-c2cccc(F)c2)c1=O)C1CC1 [Example 27, N-[(1S)-1-Cyclopropyl-2-hydroxy-2-methylpropyl]-6-[6-(difluoromethyl)pyridin-3-yl]-2-(3-fluorophenyl)-3-oxo-2,3-dihydropyridazine-4-carboxamide]	4.08
O=C(N[C@H](CO)C(F)(F)F)c1cc(-c2ccc(C(F)F)nc2)nn(-c2cccc(F)c2)c1=O [Example 28, 6-[6-(Difluoromethyl)pyridin-3-yl]-2-(3-fluorophenyl)-3-oxo-N-[(2R)-1,1,1-trifluoro-3-hydroxypropan-2-yl]-2,3-dihydropyridazine-4-carboxamide]	6.65
O=C(N[C@H](CO)C1CC1)c1cc(-c2ccc(C(F)F)nc2)nn(-c2cccc(F)c2)c1=O [Example 29, N-[(1S)-1-Cyclopropyl-2-hydroxyethyl]-6-[6-(difluoromethyl)pyridin-3-yl]-2-(3-fluorophenyl)-3-oxo-2,3-dihydropyridazine-4-carboxamide]	15.1
O=C(N[C@H]1CCC[C@H]1O)c1cc(-c2ccc(C(F)F)nc2)nn(-c2cccc(F)c2)c1=O [Example 30, 6-[6-(Difluoromethyl)pyridin-3-yl]-2-(3-fluorophenyl)-N-[(1S,2R)-2-hydroxycyclopentyl]-3-oxo-2,3-dihydropyridazine-4-carboxamide]	21.8
O=C(NCC1(O)CCCCC1)c1cc(-c2ccc(C(F)F)nc2)nn(-c2cccc(F)c2)c1=O [Example 31, 6-[6-(Difluoromethyl)pyridin-3-yl]-2-(3-fluorophenyl)-N-[(1-hydroxycyclohexyl)methyl]-3-oxo-2,3-dihydropyridazine-4-carboxamide]	31.8
N#C[C@@H](CO)NC(=O)c1cc(-c2ccc(C(F)F)nc2)nn(-c2cccc(F)c2)c1=O [Example 32, N-[(1S)-1-Cyano-2-hydroxyethyl]-6-[6-(difluoromethyl)pyridin-3-yl]-2-(3-fluorophenyl)-3-oxo-2,3-dihydropyridazine-4-carboxamide]	55.9
O=C(N[C@H]1COC[C@H]1O)c1cc(-c2ccc(C(F)F)nc2)nn(-c2cccc(F)c2)c1=O [Example 33, 6-[6-(Difluoromethyl)pyridin-3-yl]-2-(3-fluorophenyl)-N-[(3S,4S)-4-hydroxyoxolan-3-yl]-3-oxo-2,3-dihydropyridazine-4-carboxamide]	75.1
CC(C)(O)CNC(=O)c1cc(-c2ccc(C(F)F)nc2)nn(-c2cccc(F)c2)c1=O [Example 34, 6-[6-(Difluoromethyl)pyridin-3-yl]-2-(3-fluorophenyl)-N-(2-hydroxy-2-methylpropyl)-3-oxo-2,3-dihydropyridazine-4-carboxamide]	156
O=C(N[C@H]1COCC[C@H]1O)c1cc(-c2ccc(C(F)F)nc2)nn(-c2cccc(F)c2)c1=O [Example 35, 1,5-Anhydro-2,4-dideoxy-2-[({6-[6-(difluoromethyl)pyridin-3-yl]-2-(3-fluorophenyl)-3-oxo-2,3-dihydropyridazin-4-yl}carbonyl)amino]-D-erythro-pentitol]	174
O=C(NC(CO)C1CCOC1)c1cc(-c2ccc(C(F)F)nc2)nn(-c2cccc(F)c2)c1=O (centres unmarked) [Example 36, 6-[6-(Difluoromethyl)pyridin-3-yl]-2-(3-fluorophenyl)-N-[2-hydroxy-1-(tetrahydrofuran-3-yl)ethyl]-3-oxo-2,3-dihydropyridazine-4-carboxamide]	196
O=C(N[C@H]1COCC[C@@H]1O)c1cc(-c2ccc(C(F)F)nc2)nn(-c2cccc(F)c2)c1=O [Example 37, 1,5-Anhydro-2,4-dideoxy-2-[({6-[6-(difluoromethyl)pyridin-3-yl]-2-(3-fluorophenyl)-3-oxo-2,3-dihydropyridazin-4-yl}carbonyl)amino]-L-threo-pentitol]	268
O=C(N[C@H]1COC[C@@H]1O)c1cc(-c2ccc(C(F)F)nc2)nn(-c2cccc(F)c2)c1=O [Example 38, 6-[6-(Difluoromethyl)pyridin-3-yl]-2-(3-fluorophenyl)-N-[(3S,4R)-4-hydroxytetrahydrofuran-3-yl]-3-oxo-2,3-dihydropyridazine-4-carboxamide]	370
